Experimental data published in ChEMBL document CHEMBL6182867, “Discovery of ultra short β-peptoids with selective activity against drug-resistant Mycobacterium tuberculosis” (Eur J Med Chem, 2025).
In brackets after ≈: the same amount, converted by molar mass.

Legend:
[1] = test system: Mycobacterium tuberculosis; assay: Antitubercular activity against Mycobacterium tuberculosis H37Rv ATCC 27294 by microplate alamar blue assay; assay type: functional
[2] = Cytotoxicity against African green monkey Vero cells measured after 3 days by resazurin dye based fluorescence assay; assay type: toxicity, cell-based; conditions: African green monkey (Chlorocebus sabaeus)
[3] = test system: Mycobacteroides abscessus; assay: Antibacterial activity against Mycobacterium abscessus ATCC 19977 incubated for 3 days by microplate alamar blue assay; assay type: functional; conditions: ATCC 19977, 72 h, time 3 day
[4] = test system: Mycobacteroides chelonae; assay: Antibacterial activity against Mycobacteroides chelonae ATCC 35752 incubated for 3 days by microplate alamar blue assay; assay type: functional; conditions: ATCC 35752, 72 h, time 3 day
[5] = test system: Mycobacterium marinum; assay: Antibacterial activity against Mycobacterium marinum ATCC 927 incubated for 5 days by microplate alamar blue assay; assay type: functional; conditions: ATCC 927, 120 h, time 5 day
[6] = test system: Mycobacterium avium; assay: Antibacterial activity against Mycobacterium avium ATCC 15769 incubated for 6 days by microplate alamar blue assay; assay type: functional; conditions: ATCC 15769, 144 h, time 6 day
[7] = test system: Mycobacterium kansasii; assay: Antibacterial activity against Mycobacterium kansasii ATCC 12478 incubated for 7 days by microplate alamar blue assay; assay type: functional; conditions: ATCC 12478, 168 h, time 7 day
[8] = test system: Mycobacterium tuberculosis; assay: Antitubercular activity against Mycobacterium tuberculosis H37Rv by microplate alamar blue assay; assay type: functional
[9] = test system: Mycobacterium tuberculosis; assay: Antitubercular activity against Mycobacterium tuberculosis KMA 1354 by microplate alamar blue assay; assay type: functional
[10] = test system: Mycobacterium tuberculosis; assay: Antitubercular activity against Mycobacterium tuberculosis KMA 3899 by microplate alamar blue assay; assay type: functional
[11] = test system: Mycobacterium tuberculosis; assay: Antitubercular activity against Mycobacterium tuberculosis KMA 4244 by microplate alamar blue assay; assay type: functional
[12] = test system: Mycobacterium tuberculosis; assay: Antitubercular activity against Mycobacterium tuberculosis KMA 4439 by microplate alamar blue assay; assay type: functional
[13] = test system: Mycobacterium tuberculosis; assay: Antitubercular activity against Mycobacterium tuberculosis KMA 5282 by microplate alamar blue assay; assay type: functional
[14] = test system: Mycobacterium tuberculosis; assay: Bactericidal activity against Mycobacterium tuberculosis H37Rv measured up to 7 days by luminescence assay; assay type: functional; conditions: time <= 7 day

`CC(C)N(C(=O)CN(CC(c1ccccc1)c1ccccc1)C(=O)CNCC1CCCO1)C(C)C` (configuration not stated) gave an MIC90 [1] of 24.4 µg/mL.
In the case of `COCCN(CCOC)C(=O)CCNCCC(c1ccccc1)c1ccccc1`, the MIC90 [1] is reported as 8.9 µg/mL.
`Nc1c2c(nc3ccccc13)CCCC2` [TACRINE] gave an IC50 at 3 days [2] of 90.7 µM.
For `CC(C)N(C(=O)CN(Cc1cccc2ccccc12)C(=O)CNCc1cccs1)C(C)C`, the MIC90 [1] was 11.6 µg/mL.
Work on `COCCN(CCOC)C(=O)CCNCC1CCCO1` (configuration not stated) yielded an MIC90 [1] of 92.8 µg/mL.
Work on `CC[C@H]1OC(=O)[C@H](C)[C@@H](O[C@H]2C[C@@](C)(OC)[C@@H](O)[C@H](C)O2)[C@H](C)[C@@H](O[C@@H]2O[C@H](C)C[C@H](N(C)C)[C@H]2O)[C@](C)(OC)C[C@@H](C)C(=O)[C@H](C)[C@@H](O)[C@]1(C)O` [CLARITHROMYCIN] yielded an MIC90 [3] greater than 10 µM, an MIC90 [4] of 0.15 µM (≈ 0.112 µg/mL) and an MIC90 [5] of 4.72 µM (≈ 3.53 µg/mL). The MIC90 [6] was 2.35 µM (≈ 1.76 µg/mL) and the MIC90 [7] was 2.3 µM (≈ 1.72 µg/mL).
Work on `CCN(CC)C(=O)CCNCCC1CCCCCCC1` yielded an MIC90 [1] of 12.2 µg/mL.
With `CC(C)N(C(=O)CCNCC(c1ccccc1)c1ccccc1)C(C)C` the MIC90 [1] was 10.2 µg/mL.
`CC(C)N(C(=O)CCNCc1cccs1)C(C)C` showed an MIC90 [1] of 43.8 µg/mL.
In the case of `CC(=O)NC[C@H]1CN(c2ccc(N3CCOCC3)c(F)c2)C(=O)O1` [LINEZOLID], the MIC90 [1] is reported as 0.93 µM, the MIC90 [8] is reported as 0.97 µM and the MIC90 [3] is reported as 88 µM (≈ 29.7 µg/mL). For the same compound, the MIC90 [4] was 5.13 µM (≈ 1.73 µg/mL), the MIC90 [5] was 17.4 µM (≈ 5.88 µg/mL) and the MIC90 [6] was 93.5 µM (≈ 31.5 µg/mL). For the same compound, the MIC90 [7] was 85.6 µM (≈ 28.9 µg/mL), the MIC90 [9] was 0.91 µM and the MIC90 [10] was 0.48 µM. The MIC90 [11] was 1 µM, the MIC90 [12] was 0.95 µM and the MIC90 [13] was 1.89 µM. For the same compound, the MBC99 [14] was 7310 µg/mL (≈ 21700 µM).
With `CC(C)N(C(=O)CNCCC(c1ccccc1)c1ccccc1)C(C)C` the MIC90 [1] was 9.55 µg/mL.
Compound `O=C(CCNCCC(c1ccccc1)c1ccccc1)N1CCCC1` has an MIC90 [1] of 23.5 µg/mL.
Work on `O=C(CNCc1cccc2ccccc12)NCCC(c1ccccc1)c1ccccc1` yielded an MIC90 [1] of 7.25 µg/mL.
In the case of `CC/C(=C(\c1ccccc1)c1ccc(OCCN(C)C)cc1)c1ccccc1` [TAMOXIFEN], the IC50 at 3 days [2] is reported as 13.9 µM.
For `CCN(CC)C(=O)CN(Cc1cccc2ccccc12)C(=O)CNCCC(c1ccccc1)c1ccccc1`, the MIC90 [1] was 4.84 µg/mL.
With `COCCN(CCOC)C(=O)CCNC(=O)CCNCc1cccc2ccccc12` the MIC90 [1] was 3.87 µg/mL.
For `NC(=O)c1cnccn1` [PYRAZINAMIDE], the MIC90 [8] was 0.43 µM, the MIC90 [9] was 0.25 µM and the MIC90 [10] was 0.24 µM. The MIC90 [11] was 1.51 µM, the MIC90 [12] was 0.49 µM and the MIC90 [13] was 0.92 µM.
`O=[N+]([O-])c1cn2c(n1)OC[C@@H](OCc1ccc(OC(F)(F)F)cc1)C2` [PRETOMANID] showed an MIC90 [1] of 0.1 µM and an MBC99 [14] of 480 µg/mL (≈ 1340 µM).
For `O=C(CCNCc1cccc2ccccc12)NCCC(c1ccccc1)c1ccccc1`, the MIC90 [1] was 43.8 µg/mL.
For `CC(C)N(C(=O)CCN(CC(c1ccccc1)c1ccccc1)C(=O)CCNCC1CCCO1)C(C)C` (configuration not stated), the MIC90 [1] was 24.2 µg/mL.
`CC(C)N(C(=O)CNCC(c1ccccc1)c1ccccc1)C(C)C` gave an MIC90 [1] of 20.4 µg/mL.
With `O=C(CNCCC(c1ccccc1)c1ccccc1)N1CCCC1` the MIC90 [1] was 11.6 µg/mL.
With `O=C(CCNCC1CCCO1)N1CCCC1` (configuration not stated) the MIC90 [1] was greater than 100 µg/mL.
In the case of `NNC(=O)c1ccncc1` [ISONIAZID], the MIC90 [1] is reported as 0.46 µM, the MIC90 [8] is reported as 0.31 µM and the MIC90 [3] is reported as greater than 8 µM. The MIC90 [4] was greater than 8 µM, the MIC90 [5] was greater than 8 µM and the MIC90 [6] was greater than 8 µM. It also gave an MIC90 [7] greater than 8 µM, an MIC90 [9] of 0.46 µM and an MIC90 [10] of 0.43 µM. The MIC90 [11] was 1.55 µM, the MIC90 [12] was 0.41 µM and the MIC90 [13] was 0.98 µM. For the same compound, the MBC99 [14] was 250 µg/mL (≈ 1820 µM).
With `COCCN(CCOC)C(=O)CCN(CC1CCCO1)C(=O)CCNCC(c1ccccc1)c1ccccc1` (configuration not stated) the MIC90 [1] was 6.22 µg/mL.
With `O=C(CCNCC1CCCO1)NCc1cccc2ccccc12` (configuration not stated) the MIC90 [1] was 87.2 µg/mL.
In the case of `CC(C)N(C(=O)CNCc1cccc2ccccc12)C(C)C`, the MIC90 [1] is reported as 43.3 µg/mL, the MIC90 [8] is reported as 88.8 µg/mL and the MIC90 [9] is reported as 85 µg/mL. It also gave an MIC90 [10] of 49.9 µg/mL, an MIC90 [11] of 95.5 µg/mL and an MIC90 [12] of 95.2 µg/mL. For the same compound, the MIC90 [13] was 93.6 µg/mL.
`CC(C)/N=c1\cc2n(-c3ccc(Cl)cc3)c3ccccc3nc-2cc1Nc1ccc(Cl)cc1` [CLOFAZIMINE] showed an MIC90 [3] of 10.7 µM (≈ 5.06 µg/mL), an MIC90 [4] of 5.89 µM (≈ 2.79 µg/mL) and an MIC90 [5] of 9.92 µM (≈ 4.7 µg/mL). The MIC90 [6] was 5.78 µM (≈ 2.74 µg/mL) and the MIC90 [7] was 5.68 µM (≈ 2.69 µg/mL).
